From article PMC4216499 (The Indian Journal of Medical Research, 2014)
“And” between values parts separate entries of the source, which are not always exact repeats. Equal values may be shown once.

How the values were obtained:
A/H3N2 viruses = tested on: A/H3N2 viruses; parameters: species or system influenza A/H3N2 virus
[1] = tested on: pandemic (H1N1) 2009 viruses; details: cited from earlier work
Type B influenza = tested on: Type B influenza; parameters: species or system influenza B virus
A/H1N1 viruses = tested on: A/H1N1 viruses; parameters: species or system influenza A/H1N1 virus
pandemic (H1N1) viruses = tested on: pandemic (H1N1) viruses; parameters: species or system pandemic influenza A (H1N1) virus
influenza A viruses = details: cited from earlier work

Row | Structure (SMILES) | oseltamivir-resistance conferring mutations (A/H3N2 viruses) | oseltamivir-resistant viruses detected [1] | oseltamivir susceptibility by NA gene markers (Type B influenza) | Total resistant samples/Total samples (A/H1N1 viruses) | oseltamivir resistant with H274Y mutation (A/H1N1 viruses) | oseltamivir susceptibility by H274Y allelic discrimination (pandemic (H1N1) viruses) | Amantadine resistance (influenza A viruses)
1 | CCOC(=O)C1=C[C@@H](OC(CC)CC)[C@H](NC(C)=O)[C@@H](N)C1 [oseltamivir] | none of the isolates had any of the reported oseltamivir-resistance conferring mutations | less than 1 per cent | all type B isolates were sensitive | 35/38 and 15/23 | 82% | all were sensitive | 
2 | NC12CC3CC(CC(C3)C1)C2 [amantadine] |  |  |  |  |  |  | 33-100%
